Data: patent US20160184246A1, “TRANSDERMAL DRUG DELIVERY SYSTEMS FOR AGOMELATINE” (Noven Pharmaceuticals, Inc., priority 2014, published 2016)
≈ marks a conversion by molar mass, not a printed value.

Experiments:
[1] = Solubility of agomelatine in water or aqueous isopropanol (IPA); format: physicochemical; settings: 32° C.
Description: The solubility of agomelatine in water or different concentrations of aqueous isopropanol (IPA) was assessed. As shown in the table below, the solubility of agomelatine in aqueous IPA solutions increased with increasing IPA content. Agomelatine was formulated at its saturation concentration in different concentrations of aqueous IPA and drug flux through human cadaver skin was assessed using a modified Franz-cell apparatus, using 0.1 mL solution per cm^2.

[2] = Pharmacokinetics of oral agomelatine (background); format: in vivo, human; settings: current commercial oral dosage, humans
Description: Oral dosage forms (tablets) of agomelatine have been approved in Europe under the trade names Valdoxan, Melitor, and Thymanax. Each tablet contains 25 mg agomelatine, prescribed at an initial dose of 1 tablet taken at bedtime, which dose may be increased to 2 tablets (50 mg) as needed. Oral agomelatine is well absorbed (although greater in women than in men), however, oral bioavailability is only 5% with large variations. The limited bioavailability is believed to be due to heavy first-pass liver metabolism, predominantly by cytochrome CYP1A2 of the P450 isoenzyme system, which results in conjugated metabolites of hydroxylated and demethylated agomelatine. […] The agomelatine oral tablet product produces a human plasma concentration-time pharmacokinetic (PK) profile with a Cmax of about 6 ng/ml, declining thereafter thereafter with a t1/2 of less than 2 hours.

[3] = cited from earlier work
[4] = tested on: serum hepatic transaminases; settings: in vivo; cited from earlier work
[5] = cited from earlier work; remark: listed apart in the source

solubility ([1]; 0 (water)): 0.4 mg/mL (≈ 1.64 mM)
solubility ([1]; 25 v/v % aqueous isopropanol, aqueous with cosolvent or surfactant or cyclodextrin, 25 v/v % aqueous IPA): 3 mg/mL (≈ 12.3 mM)
solubility ([1]; 50 v/v % aqueous isopropanol, aqueous with cosolvent or surfactant or cyclodextrin, 50 v/v % aqueous IPA): 51 mg/mL (≈ 210 mM)
solubility ([1]; 75 v/v % aqueous isopropanol, aqueous with cosolvent or surfactant or cyclodextrin, 75 v/v % aqueous IPA): 139 mg/mL (≈ 571 mM)
solubility ([1]; 90 v/v % aqueous isopropanol, aqueous with cosolvent or surfactant or cyclodextrin, 90 v/v % aqueous IPA): > 150 mg/mL
systemic delivery of agomelatine after hepatic metabolism [2]: 1.25 to 2.5 mg
SMILES: COc1ccc2cccc(CCNC(C)=O)c2c1 [Agomelatine, N-[2-(7-methoxynaphthalen-1-yl)ethyl]acetamide]
bound to plasma protein ([3]; in vivo): 95%
plasma half-life (t1/2) ([3]; in vivo): 1 to 2 h
oral bioavailability ([3]; oral): 5%
increases in serum hepatic transaminases [4]: as high as three times the upper limit of normal range
individuals with increases in serum hepatic transaminases [4]: up to 1%
solubility in water [5]: 0.2 mg/mL (≈ 0.822 mM)
